The results in this text go back to US11542255B2, “Sulfonylureas and sulfonylthioureas as NLRP3 inhibitors” (Inflazome Limited, priority 2017, dated 2023).

The target in experiment [1] is T1, NLRP3 (Homo sapiens, UniProt Q96P20). Description: Human whole blood IL1β release assay (LPS + nigericin, AlphaLisa IL-1β). The conditions noted are these: NLRP3 inhibitory activity, 1 μg/ml LPS, 10 μM nigericin, IL-1β release, read-out: HWB IC50. The format is cell-based. Also on record: Human whole blood in Li-heparin tubes was obtained from healthy donors from a volunteer donor panel; from tissue; host or cells: human whole blood from healthy donors. Here is the method: For systemic delivery, the ability to inhibit NLRP3 when the compounds are present within the bloodstream is of great importance. For this reason, the NLRP3 inhibitory activity of a number of compounds in human whole blood was investigated in accordance with the following protocol.
T1 sequence (Q96P20 whole entry): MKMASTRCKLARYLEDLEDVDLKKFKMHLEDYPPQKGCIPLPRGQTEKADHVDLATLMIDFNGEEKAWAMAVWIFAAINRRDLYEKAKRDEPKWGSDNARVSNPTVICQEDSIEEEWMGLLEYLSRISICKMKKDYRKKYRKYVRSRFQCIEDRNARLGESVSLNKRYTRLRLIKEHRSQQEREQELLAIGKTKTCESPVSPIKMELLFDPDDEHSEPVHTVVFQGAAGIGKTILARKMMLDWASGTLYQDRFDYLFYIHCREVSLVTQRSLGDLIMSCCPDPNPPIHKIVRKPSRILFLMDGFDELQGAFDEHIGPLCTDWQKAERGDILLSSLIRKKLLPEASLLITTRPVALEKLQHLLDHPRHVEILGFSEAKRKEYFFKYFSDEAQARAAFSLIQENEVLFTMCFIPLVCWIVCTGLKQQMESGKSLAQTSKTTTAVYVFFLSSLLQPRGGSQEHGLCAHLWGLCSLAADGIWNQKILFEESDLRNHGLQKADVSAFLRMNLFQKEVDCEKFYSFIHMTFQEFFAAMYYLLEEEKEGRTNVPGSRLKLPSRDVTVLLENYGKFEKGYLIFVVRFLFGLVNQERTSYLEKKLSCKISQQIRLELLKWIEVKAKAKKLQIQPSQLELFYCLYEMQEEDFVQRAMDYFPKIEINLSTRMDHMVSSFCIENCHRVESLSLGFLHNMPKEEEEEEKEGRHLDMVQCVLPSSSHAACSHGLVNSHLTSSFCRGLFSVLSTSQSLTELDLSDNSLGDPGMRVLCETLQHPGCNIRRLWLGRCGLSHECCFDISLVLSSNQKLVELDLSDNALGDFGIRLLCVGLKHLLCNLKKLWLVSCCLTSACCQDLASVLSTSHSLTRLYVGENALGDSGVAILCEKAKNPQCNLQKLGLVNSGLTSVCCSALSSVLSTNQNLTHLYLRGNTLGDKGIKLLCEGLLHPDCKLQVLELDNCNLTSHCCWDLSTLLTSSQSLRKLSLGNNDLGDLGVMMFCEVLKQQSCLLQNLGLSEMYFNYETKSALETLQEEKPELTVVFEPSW
Human whole blood in Li-heparin tubes was obtained from healthy donors from a volunteer donor panel. • 1. Plate out 80 μl of whole blood containing 1 μg/ml of LPS in 96-well, clear bottom cell culture plate (Corning #3585) • 2. Add 10 μl compound (8 points half-log dilution with 10 μM top dose) or vehicle (DMSO 0.1% FAC) to the appropriate wells • 3. Incubate for 3 hrs at 37° C., 5% CO2 • 4. Add 10 μl Nigericin (Sigma #N7143) (10 μM FAC) to all wells • 5. Incubate for 1 hr at 37° C., 5% CO2 • 6. At the end of the incubation period, spin plates at 300×g for 5 mins to pellet cells and remove 20 μl of supernatant and add to 96-well v-bottom plates for IL-1β analysis (note: these plates containing the supernatants can be stored at −80° C. to be analysed at a later date) • 7. IL-1β was measured according to the manufacturer protocol (Perkin Elmer-AlphaLisa IL-1β Kit AL220F-5000) • 8. IC50 data is fitted to a non-linear regression equation (log inhibitor vs response-variable slope 4-parameters)
(In Alpha technology, singlet oxygen from a donor bead excites a nearby acceptor bead.)

Experiment [2] addresses T1, NLRP3. Description: THP-1 cells pyroptosis assay (LPS + nigericin, resazurin readout). It counts as cell-based. Also on record: Seed THP-1 cells (25,000 cells/well) containing 1.0 μg/ml LPS in 40 μl of RPMI medium; host or cells: THP-1 cells. The note with it: NLRP3 inhibitory activity, 1.0 μg/ml LPS, 5 μM nigericin. Here is the method:
THP-1 cells (ATCC #TIB-202) were grown in RPMI containing L-glutamine (Gibco #11835) supplemented with 1 mM sodium pyruvate (Sigma #S8636) and penicillin (100 units/ml)/streptomycin (0.1 mg/ml) (Sigma #P4333) in 10% Fetal Bovine Serum (FBS) (Sigma #F0804). The cells were routinely passaged and grown to confluency (˜10^6 cells/ml). On the day of the experiment, THP-1 cells were harvested and resuspended into RPMI medium (without FBS). The cells were then counted and viability (>90%) checked by Trypan blue (Sigma #T8154). Appropriate dilutions were made to give a concentration of 625,000 cells/ml. To this diluted cell solution was added LPS (Sigma #L4524) to give a […] Final Assay Concentration (FAC). 40 μl of the final preparation was aliquoted into each well of a 96-well plate. The plate thus prepared was used for compound screening.
The following method step-by-step assay was followed for compound screening. • 1. Seed THP-1 cells (25,000 cells/well) containing 1.0 μg/ml LPS in 40 μl of RPMI medium (without FBS) in 96-well, black walled, clear bottom cell culture plates coated with poly-D-lysine (VWR #734-0317) • 2. Add 5 μl compound (8 points half-log dilution, with 10 μM top dose) or vehicle (DMSO 0.1% FAC) to the appropriate wells • 3. Incubate for 3 hrs at 37° C. in 5% CO2 • 4. Add 5 μl nigericin (Sigma #N7143) (FAC 5 μM) to all wells • 5. Incubate for 1 hr at 37° C. and 5% CO2 • 6. At the end of the incubation period, spin plates at 300×g for 3 mins and remove supernatant • 7. Then add 50 μl of resazurin (Sigma #R7017) (FAC 100 μM resazurin in RPMI medium without FBS) and incubate plates for a further 1-2 hrs at 37° C. and 5% CO2 • 8. Plates were read in an Envision reader at Ex 560 nm and Em 590 nm • 9. IC50 data is fitted to a non-linear regression equation (log inhibitor vs response-variable slope 4-parameters)
For orientation: Alamar Blue is a resazurin reagent that responds to reducing activity.

Structures can show the parent of a compound that is named as a salt.

In general, IC50 refers to the point on the concentration scale where inhibition reaches its midpoint. Consider `CC(C)n1nc(S(=O)(=O)NC(=O)Nc2c3c(cc4c2CCC4)CCC3)cc1CCN(C)C` [Example 33, 5-(2-(Dimethylamino)ethyl)-N-((1,2,3,5,6,7-hexahydro-s-indacen-4-yl)carbamoyl)-1-isopropyl-1H-pyrazole-3-sulfonamide, Sodium Salt], for which the IC50 fell in the range of 0.4 to 0.8 µM at NLRP3 [1] and 0.16 to 0.64 µM at NLRP3 [2].
For `CN(C)C(C)(C)c1cc(S(=O)(=O)NC(=O)Nc2c3c(cc4c2CCC4)CCC3)nn1C` [Example 34, 5-(2-(Dimethylamino)propan-2-yl)-N-((1,2,3,5,6,7-hexahydro-s-indacen-4-yl)carbamoyl)-1-methyl-1H-pyrazole-3-sulfonamide], the IC50 at NLRP3 [1] fell in the range of 0.4 to 0.8 µM; on NLRP3 [2] it was 0.04 to 0.16 µM.
For the compound `CCn1nc(S(=O)(=O)NC(=O)Nc2c(-c3ccnc(C#N)c3)cc(F)cc2C(C)C)cc1CN(C)C` [Example 35, N-((2-(2-Cyanopyridin-4-yl)-4-fluoro-6-isopropylphenyl)carbamoyl)-5-((dimethylamino)methyl)-1-ethyl-1H-pyrazole-3-sulfonamide], the IC50 was below 0.4 µM at NLRP3 [1] and 0.04 to 0.16 µM on NLRP3 [2].
Take `CC(C)c1cc(F)cc(-c2ccnc(C#N)c2)c1NC(=O)NS(=O)(=O)c1cc(CN(C)C)n(C)n1` [Example 36, N-((2-(2-Cyanopyridin-4-yl)-4-fluoro-6-isopropylphenyl)carbamoyl)-5-((dimethylamino)methyl)-1-methyl-1H-pyrazole-3-sulfonamide]: the IC50 at NLRP3 [1] was below 0.4 µM; at NLRP3 [2] it was 0.04 to 0.16 µM.
For the compound `CN(C)Cc1cc(S(=O)(=O)NC(=O)Nc2c3c(cc4c2CCC4)CCC3)nn1C(C)(C)C` [Example 37, 1-(tert-Butyl)-5-((dimethylamino)methyl)-N-((1,2,3,5,6,7-hexahydro-s-indacen-4-yl)carbamoyl)-1H-pyrazole-3-sulfonamide], the IC50 on NLRP3 [1] is 3.2 to 10 µM; at NLRP3 [2] it was below 0.04 µM.
With `CC(C)(C)n1nc(S(=O)(=O)NC(=O)Nc2c3c(cc4c2CCC4)CCC3)cc1CN1CCC1` [Example 38, 5-(Azetidin-1-ylmethyl)-1-(tert-butyl)-N-((1,2,3,5,6,7-hexahydro-s-indacen-4-yl)carbamoyl)-1H-pyrazole-3-sulfonamide], the IC50 on NLRP3 [1] lay within 1.6 to 3.2 µM; at NLRP3 [2] it was 0.04 to 0.16 µM.
For `CC(C)c1cc(F)cc(-c2ccccc2)c1NC(=O)NS(=O)(=O)c1cc(CN(C)C)n(C(C)C)n1` [Example 39, 5-((Dimethylamino)methyl)-N-((5-fluoro-3-isopropyl-[1,1′-biphenyl]-2-yl)carbamoyl)-1-isopropyl-1-H-pyrazole-3-sulfonamide], the IC50 on NLRP3 [1] lay in the range of 1.6 to 3.2 µM; at NLRP3 [2] it was 0.64 to 2.56 µM.
On to `Cc1cc(-c2cc(F)cc(C(C)C)c2NC(=O)NS(=O)(=O)c2cc(CN(C)C)n(C)n2)n(C)n1` [Example 40, N-((2-(1,3-Dimethyl-1H-pyrazol-5-yl)-4-fluoro-6-isopropylphenyl)carbamoyl)-5-((dimethylamino)methyl)-1-methyl-1H-pyrazole-3-sulfonamide], for which the IC50 on NLRP3 [1] lay in the range of 0.4 to 0.8 µM; on NLRP3 [2], 0.16 to 0.64 µM.
For `CC(C)c1cc(F)cc(-c2cccnc2)c1NC(=O)NS(=O)(=O)c1cc(CN(C)C)n(C)n1` [Example 41, 5-((Dimethylamino)methyl)-N-((4-fluoro-2-isopropyl-6-(pyridin-3-yl)phenyl)carbamoyl)-1-methyl-1H-pyrazole-3-sulfonamide], the IC50 was below 0.4 µM on NLRP3 [1] and 0.04 to 0.16 µM at NLRP3 [2].
As to `CC(C)c1cc(F)cc(-c2cccc(C#N)c2)c1NC(=O)NS(=O)(=O)c1cc(CN(C)C)n(C(C)C)n1` [Example 45, N-((3′-Cyano-5-fluoro-3-isopropyl-[1,1′-biphenyl]-2-yl)carbamoyl)-5-((dimethylamino)methyl)-1-isopropyl-1H-pyrazole-3-sulfonamide], the results for the IC50 at NLRP3 [1] and at NLRP3 [2] were 0.8 to 1.6 µM and 0.16 to 0.64 µM, respectively.
